According to patent US8962844B2, “1,3,4-oxadiazole and 1,3,4-thiadiazole β-lactamase inhibitors” (priority 2012, dated 2015):
Where a name gives a salt, the structure may show the parent alone.

Columns and labels:
[1] = system: bacterial strains that express KPC β-lactamases; test: Standard BLI potentiation MIC / synergy MIC (sMIC) assays run in the presence of a β-lactam, KPC expressing strains; format: cell-based; conditions: more active for at least one KPC strain and/or better spectrum of activity than Avibactam; BLI in combination with a β-lactam
Method in brief: (§1)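 Isogenic E. coli DH10B carrying cloned β-lactamase genes on pBR322-derived plasmid (blaTEM-1 promoter, tetracycline 25 μg/mL) tested by CLSI broth microdilution in CAMHB. Test compound and β-lactam each diluted and combined; MIC reported in presence of β-lactam.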

[2] = system: bacterial strains that express the class D cephalosporinase OXA-15; test: Standard BLI potentiation MIC / synergy MIC (sMIC) assays run in the presence of a β-lactam, OXA-15 expressing strains; format: cell-based, E. coli; conditions: BLI in combination with a β-lactam; comparison with Avibactam (comparator compound CCC)
Method in brief: as §1

SMILES	activity and/or spectrum of activity against bacterial strains that express KPC β-lactamases, compared with Avibactam [1]	activity against bacterial strains that express the class D cephalosporinase OXA-15, compared with Avibactam [2]
O=C1N2C[C@@H](CC[C@H]2c2nnc(CCC3CNC3)o2)N1OS(=O)(=O)O [Compound 742, (2S,5R)-2-(5-(2-(azetidin-3-yl)ethyl)-1,3,4-oxadiazol-2-yl)-7-oxo-1,6-diazabicyclo[3.2.1]octan-6-yl hydrogen sulfate]	more active than Avibactam	more active than Avibactam
O=C1N2C[C@@H](CC[C@H]2c2nnc(CC3CCNC3)o2)N1OS(=O)(=O)O (stereo partly drawn) [Compound 764, (2S,5R)-7-oxo-2-(5-(pyrrolidin-3-ylmethyl)-1,3,4-oxadiazol-2-yl)-1,6-diazabicyclo[3.2.1]octan-6-yl hydrogen sulfate]	more active than Avibactam	more active than Avibactam
O=C1N2C[C@@H](CC[C@H]2c2nnc([C@H]3CCNC3)o2)N1OS(=O)(=O)O [Compound 758, (2S,5R)-7-oxo-2-(5-((S)-pyrrolidin-3-yl)-1,3,4-oxadiazol-2-yl)-1,6-diazabicyclo[3.2.1]octan-6-yl hydrogen sulfate]	more active than Avibactam	more active than Avibactam
N[C@H]1C[C@@H](Cc2nnc([C@@H]3CC[C@@H]4CN3C(=O)N4OS(=O)(=O)O)o2)C1 [Compound 728, (2S,5R)-2-(5-(((1s,3R)-3-aminocyclobutyl)methyl)-1,3,4-oxadiazol-2-yl)-7-oxo-1,6-diazabicyclo[3.2.1]octan-6-yl hydrogen sulfate]	more active than Avibactam	more active than Avibactam
N[C@H]1C[C@@H](CCc2nnc([C@@H]3CC[C@@H]4CN3C(=O)N4OS(=O)(=O)O)o2)C1 [Compound 754, (2S,5R)-2-(5-(2-((1s,3S)-3-aminocyclobutyl)ethyl)-1,3,4-oxadiazol-2-yl)-7-oxo-1,6-diazabicyclo[3.2.1]octan-6-yl hydrogen sulfate]	more active than Avibactam	more active than Avibactam
O=C1N2C[C@@H](CC[C@H]2c2nnco2)N1OS(=O)(=O)O [Compound 701, (2S,5R)-2-(1,3,4-oxadiazol-2-yl)-7-oxo-1,6-diazabicyclo[3.2.1]octan-6-yl hydrogen sulfate]	more active than Avibactam	more active than Avibactam
O=C1N2C[C@@H](CC[C@H]2c2nnc([C@@H]3CCNC3)o2)N1OS(=O)(=O)O [Compound 759, (2S,5R)-7-oxo-2-(5-((R)-pyrrolidin-3-yl)-1,3,4-oxadiazol-2-yl)-1,6-diazabicyclo[3.2.1]octan-6-yl hydrogen sulfate]	more active than Avibactam	more active than Avibactam
N[C@H]1C[C@H](c2nnc([C@@H]3CC[C@@H]4CN3C(=O)N4OS(=O)(=O)O)s2)C1 [Compound 783, (2S,5R)-2-(5-((1r,3S)-3-aminocyclobutyl)-1,3,4-thiadiazol-2-yl)-7-oxo-1,6-diazabicyclo[3.2.1]octan-6-yl hydrogen sulfate]	more active than Avibactam	more active than Avibactam
N=C(N)NC1CC(Cc2nnc([C@@H]3CC[C@@H]4CN3C(=O)N4OS(=O)(=O)O)o2)C1 (stereo partly drawn) [Compound 752, (2S,5R)-2-(5-((3-guanidinocyclobutyl)methyl)-1,3,4-oxadiazol-2-yl)-7-oxo-1,6-diazabicyclo[3.2.1]octan-6-yl hydrogen sulfate]	more active than Avibactam	more active than Avibactam
N[C@H]1C[C@H](c2nnc([C@@H]3CC[C@@H]4CN3C(=O)N4OS(=O)(=O)O)o2)C1 [Compound 727, (2S,5R)-2-(5-((1r,3S)-3-aminocyclobutyl)-1,3,4-oxadiazol-2-yl)-7-oxo-1,6-diazabicyclo[3.2.1]octan-6-yl hydrogen sulfate]	more active than Avibactam	more active than Avibactam
O=C1N2C[C@@H](CC[C@H]2c2nnc(CCCCNC3CCNCC3)o2)N1OS(=O)(=O)O [Compound 772, (2S,5R)-7-oxo-2-(5-(4-(piperidin-4-ylamino)butyl)-1,3,4-oxadiazol-2-yl)-1,6-diazabicyclo[3.2.1]octan-6-yl hydrogen sulfate]	more active than Avibactam	more active than Avibactam
O=C1N2C[C@@H](CC[C@H]2c2nnc(CNC3CNC3)o2)N1OS(=O)(=O)O [Compound 726, (2S,5R)-2-(5-((azetidin-3-ylamino)methyl)-1,3,4-oxadiazol-2-yl)-7-oxo-1,6-diazabicyclo[3.2.1]octan-6-yl hydrogen sulfate]	more active than Avibactam	more active than Avibactam
O=C1N2C[C@@H](CC[C@H]2c2nnc(C3CC4(CNC4)C3)o2)N1OS(=O)(=O)O [Compound 750, (2S,5R)-2-(5-(2-azaspiro[3,3]heptan-6-yl)-1,3,4-oxadiazol-2-yl)-7-oxo-1,6-diazabicyclo[3.2.1]octan-6-yl hydrogen sulfate]	more active than Avibactam	more active than Avibactam
O=C1N2C[C@@H](CC[C@H]2c2nnc(CN[C@H]3CCNC3)o2)N1OS(=O)(=O)O [Compound 765, (2S,5R)-7-oxo-2-(5-(((S)-pyrrolidin-3-ylamino)methyl)-1,3,4-oxadiazol-2-yl)-1,6-diazabicyclo[3.2.1]octan-6-yl hydrogen sulfate]	more active than Avibactam	more active than Avibactam
N=C(N)NCc1nnc([C@@H]2CC[C@@H]3CN2C(=O)N3OS(=O)(=O)O)s1 [Compound 721, (2S,5R)-2-(5-(guanidinomethyl)-1,3,4-thiadiazol-2-yl)-7-oxo-1,6-diazabicyclo[3.2.1]octan-6-yl hydrogen sulfate]	more active than Avibactam	more active than Avibactam
